In ChEMBL document CHEMBL6153119, “Target Identification with Live-Cell Photoaffinity Labeling and Mechanism of Action Elucidation of ARN23765, a Highly Potent CFTR Corrector” (J Med Chem, 2025):
Values belong to the compound of their own block, whether it stands above or below them. Active and inactive are the calls of the source. The calls are words filed in the database; no cut-off is given here.

Tests used:
Format in all cases: cell-based
[1] = target: Cystic fibrosis transmembrane conductance regulator (Homo sapiens) (UniProt P13569); experiment: Corrector activity at CFTR (unknown origin) transfected in HEK293 cells harboring CFTR fragment containing MSD2 assessed as increase in expression of CFTR level at 10 nM incubated for 24 hrs by Western blot analysis
Sequence of Cystic fibrosis transmembrane conductance regulator (Homo sapiens) (P13569 whole entry, looked up, the tested form may be a part): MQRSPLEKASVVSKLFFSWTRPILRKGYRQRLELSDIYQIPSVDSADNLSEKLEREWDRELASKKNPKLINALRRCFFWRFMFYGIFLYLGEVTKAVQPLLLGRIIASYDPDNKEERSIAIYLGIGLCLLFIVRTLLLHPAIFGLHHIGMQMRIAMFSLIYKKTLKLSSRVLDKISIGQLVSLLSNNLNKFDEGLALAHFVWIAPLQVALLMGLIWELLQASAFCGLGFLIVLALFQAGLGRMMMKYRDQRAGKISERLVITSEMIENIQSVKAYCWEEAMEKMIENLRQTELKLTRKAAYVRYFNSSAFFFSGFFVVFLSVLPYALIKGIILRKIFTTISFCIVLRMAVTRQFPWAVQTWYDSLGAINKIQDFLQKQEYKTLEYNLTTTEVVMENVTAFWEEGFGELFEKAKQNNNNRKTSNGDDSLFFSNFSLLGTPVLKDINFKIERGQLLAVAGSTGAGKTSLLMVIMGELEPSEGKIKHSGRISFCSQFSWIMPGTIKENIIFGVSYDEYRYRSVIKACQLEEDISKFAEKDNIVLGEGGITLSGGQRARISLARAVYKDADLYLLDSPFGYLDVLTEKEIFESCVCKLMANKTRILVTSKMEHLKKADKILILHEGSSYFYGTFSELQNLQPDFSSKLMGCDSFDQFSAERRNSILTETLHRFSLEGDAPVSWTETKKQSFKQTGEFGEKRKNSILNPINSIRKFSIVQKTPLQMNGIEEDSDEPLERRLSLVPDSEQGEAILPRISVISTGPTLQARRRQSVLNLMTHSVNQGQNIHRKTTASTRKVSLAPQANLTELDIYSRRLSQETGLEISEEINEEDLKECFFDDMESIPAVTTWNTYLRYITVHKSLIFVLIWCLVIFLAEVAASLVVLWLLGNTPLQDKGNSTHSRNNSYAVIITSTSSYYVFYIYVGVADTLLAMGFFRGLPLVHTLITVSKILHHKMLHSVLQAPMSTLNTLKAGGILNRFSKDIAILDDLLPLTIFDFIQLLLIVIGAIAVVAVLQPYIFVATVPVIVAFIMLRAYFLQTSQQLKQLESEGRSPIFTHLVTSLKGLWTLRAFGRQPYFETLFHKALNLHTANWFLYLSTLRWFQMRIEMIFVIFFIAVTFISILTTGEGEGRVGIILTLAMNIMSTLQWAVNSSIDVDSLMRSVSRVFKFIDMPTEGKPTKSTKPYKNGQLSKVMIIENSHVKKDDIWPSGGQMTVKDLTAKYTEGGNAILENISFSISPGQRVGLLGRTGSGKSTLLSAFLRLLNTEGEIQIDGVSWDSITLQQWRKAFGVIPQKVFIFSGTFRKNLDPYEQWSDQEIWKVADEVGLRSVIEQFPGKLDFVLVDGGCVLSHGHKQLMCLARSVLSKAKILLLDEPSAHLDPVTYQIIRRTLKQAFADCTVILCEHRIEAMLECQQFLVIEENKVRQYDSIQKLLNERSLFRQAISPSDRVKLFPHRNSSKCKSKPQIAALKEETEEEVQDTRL

[2] = target: Cystic fibrosis transmembrane conductance regulator (Homo sapiens) (UniProt P13569); experiment: Corrector activity at wild-type CFTR (unknown origin) expressed in human CFBE41o- cells assessed as restoration of CFTR level at 25 uM incubated for 30 mins by pull down assay
[3] = tested on: Cystic fibrosis transmembrane conductance regulator (Homo sapiens), P13569 [F508del]; experiment: Corrector activity at CFTR F508del mutant (unknown origin) expressed in human CFBE41o- cells assessed as restoration of CFTR level at 25 uM incubated for 30 mins by pull down assay
Sequence of Cystic fibrosis transmembrane conductance regulator (Homo sapiens), P13569 [F508del] (P13569 as listed by the source): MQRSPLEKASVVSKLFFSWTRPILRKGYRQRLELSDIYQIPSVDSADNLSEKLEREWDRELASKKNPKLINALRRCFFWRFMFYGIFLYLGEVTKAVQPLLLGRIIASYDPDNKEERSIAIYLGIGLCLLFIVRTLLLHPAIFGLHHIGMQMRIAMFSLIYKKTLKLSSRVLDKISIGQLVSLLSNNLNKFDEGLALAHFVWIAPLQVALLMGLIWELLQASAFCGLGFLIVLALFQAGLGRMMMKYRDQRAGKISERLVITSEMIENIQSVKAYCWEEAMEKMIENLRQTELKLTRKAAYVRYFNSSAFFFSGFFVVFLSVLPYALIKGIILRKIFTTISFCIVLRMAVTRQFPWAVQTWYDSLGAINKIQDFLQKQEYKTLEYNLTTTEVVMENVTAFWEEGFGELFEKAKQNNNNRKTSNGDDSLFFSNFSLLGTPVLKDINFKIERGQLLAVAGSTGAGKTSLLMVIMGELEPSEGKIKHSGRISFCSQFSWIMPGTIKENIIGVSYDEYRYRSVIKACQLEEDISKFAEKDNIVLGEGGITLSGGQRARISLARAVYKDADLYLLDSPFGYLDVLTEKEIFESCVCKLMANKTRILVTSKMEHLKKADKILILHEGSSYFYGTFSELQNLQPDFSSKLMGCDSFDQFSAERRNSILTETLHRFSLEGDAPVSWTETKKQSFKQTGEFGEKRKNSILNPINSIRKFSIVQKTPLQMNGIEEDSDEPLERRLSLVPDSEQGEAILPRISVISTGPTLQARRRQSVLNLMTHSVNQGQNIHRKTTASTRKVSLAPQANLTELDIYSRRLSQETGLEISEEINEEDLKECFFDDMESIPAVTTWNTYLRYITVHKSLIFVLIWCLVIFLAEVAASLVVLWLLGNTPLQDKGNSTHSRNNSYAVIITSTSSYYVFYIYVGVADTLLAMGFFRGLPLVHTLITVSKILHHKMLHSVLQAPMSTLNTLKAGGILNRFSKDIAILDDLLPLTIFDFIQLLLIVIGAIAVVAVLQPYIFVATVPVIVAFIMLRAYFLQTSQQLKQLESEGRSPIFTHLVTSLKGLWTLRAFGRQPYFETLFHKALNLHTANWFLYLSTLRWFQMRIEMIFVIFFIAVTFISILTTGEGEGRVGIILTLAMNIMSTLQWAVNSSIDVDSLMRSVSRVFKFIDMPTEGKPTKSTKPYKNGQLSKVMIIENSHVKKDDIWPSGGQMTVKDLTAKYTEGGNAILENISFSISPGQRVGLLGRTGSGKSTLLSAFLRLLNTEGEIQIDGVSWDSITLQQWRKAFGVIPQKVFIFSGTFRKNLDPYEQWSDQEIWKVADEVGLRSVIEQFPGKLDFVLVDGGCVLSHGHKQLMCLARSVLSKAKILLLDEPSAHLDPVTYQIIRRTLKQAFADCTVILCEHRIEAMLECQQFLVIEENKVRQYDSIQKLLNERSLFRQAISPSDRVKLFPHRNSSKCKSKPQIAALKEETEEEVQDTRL

[4] = target: Cystic fibrosis transmembrane conductance regulator (Homo sapiens) (UniProt P13569); experiment: Corrector activity at CFTR (unknown origin) transfected in HEK293 cells harboring CFTR fragment containing MSD1 assessed as increase in expression of CFTR level at 10 nM incubated for 24 hrs by Western blot analysis
[5] = target: Cystic fibrosis transmembrane conductance regulator (Homo sapiens) (UniProt P13569); experiment: Corrector activity at CFTR (unknown origin) transfected in HEK293 cells harboring CFTR fragment containing MSD1-NBD1 assessed as increase in expression of CFTR level at 10 nM incubated for 24 hrs by Western blot analysis
[6] = target: Cystic fibrosis transmembrane conductance regulator (Homo sapiens) (UniProt P13569); experiment: Corrector activity at CFTR (unknown origin) transfected in HEK293 cells harboring CFTR fragment containing MSD1-NBD1-R assessed as increase in expression of CFTR level at 10 nM incubated for 24 hrs by Western blot analysis
[7] = target: Cystic fibrosis transmembrane conductance regulator (Homo sapiens) (UniProt P13569); experiment: Corrector activity at CFTR (unknown origin) transfected in HEK293 cells harboring CFTR fragment containing del-R assessed as increase in expression of CFTR level at 10 nM incubated for 24 hrs by Western blot analysis
[8] = target: Cystic fibrosis transmembrane conductance regulator (Homo sapiens) (UniProt P13569); experiment: Corrector activity at CFTR (unknown origin) transfected in HEK293 cells harboring CFTR fragment containing MSD2-NBD2 assessed as increase in expression of CFTR level at 10 nM incubated for 24 hrs by Western blot analysis
[9] = target: Cystic fibrosis transmembrane conductance regulator (Homo sapiens) (UniProt P13569); experiment: Corrector activity at CFTR (unknown origin) transfected in HEK293 cells harboring CFTR fragment containing MSD1 assessed as increase in half life of CFTR MSD1 at 10 nM incubated for 24 hrs by Western blot analysis
[10] = target: Cystic fibrosis transmembrane conductance regulator (Homo sapiens) (UniProt P13569); experiment: Corrector activity at CFTR (unknown origin) transfected in HEK293 cells harboring CFTR fragment containing MSD2 assessed as effect on CFTR MSD2 stability at 10 nM incubated for 24 hrs by Western blot analysis
[11] = tested on: Cystic fibrosis transmembrane conductance regulator (Homo sapiens), P13569 [F508del/R1070W]; experiment: Corrector activity at CFTR F508del/R1070W mutant (unknown origin) transfected in HEK293 cells assessed as increase in protein maturation at 10 nM incubated for 24 hrs by Western blot analysis
Sequence of Cystic fibrosis transmembrane conductance regulator (Homo sapiens), P13569 [F508del/R1070W] (P13569 as listed by the source): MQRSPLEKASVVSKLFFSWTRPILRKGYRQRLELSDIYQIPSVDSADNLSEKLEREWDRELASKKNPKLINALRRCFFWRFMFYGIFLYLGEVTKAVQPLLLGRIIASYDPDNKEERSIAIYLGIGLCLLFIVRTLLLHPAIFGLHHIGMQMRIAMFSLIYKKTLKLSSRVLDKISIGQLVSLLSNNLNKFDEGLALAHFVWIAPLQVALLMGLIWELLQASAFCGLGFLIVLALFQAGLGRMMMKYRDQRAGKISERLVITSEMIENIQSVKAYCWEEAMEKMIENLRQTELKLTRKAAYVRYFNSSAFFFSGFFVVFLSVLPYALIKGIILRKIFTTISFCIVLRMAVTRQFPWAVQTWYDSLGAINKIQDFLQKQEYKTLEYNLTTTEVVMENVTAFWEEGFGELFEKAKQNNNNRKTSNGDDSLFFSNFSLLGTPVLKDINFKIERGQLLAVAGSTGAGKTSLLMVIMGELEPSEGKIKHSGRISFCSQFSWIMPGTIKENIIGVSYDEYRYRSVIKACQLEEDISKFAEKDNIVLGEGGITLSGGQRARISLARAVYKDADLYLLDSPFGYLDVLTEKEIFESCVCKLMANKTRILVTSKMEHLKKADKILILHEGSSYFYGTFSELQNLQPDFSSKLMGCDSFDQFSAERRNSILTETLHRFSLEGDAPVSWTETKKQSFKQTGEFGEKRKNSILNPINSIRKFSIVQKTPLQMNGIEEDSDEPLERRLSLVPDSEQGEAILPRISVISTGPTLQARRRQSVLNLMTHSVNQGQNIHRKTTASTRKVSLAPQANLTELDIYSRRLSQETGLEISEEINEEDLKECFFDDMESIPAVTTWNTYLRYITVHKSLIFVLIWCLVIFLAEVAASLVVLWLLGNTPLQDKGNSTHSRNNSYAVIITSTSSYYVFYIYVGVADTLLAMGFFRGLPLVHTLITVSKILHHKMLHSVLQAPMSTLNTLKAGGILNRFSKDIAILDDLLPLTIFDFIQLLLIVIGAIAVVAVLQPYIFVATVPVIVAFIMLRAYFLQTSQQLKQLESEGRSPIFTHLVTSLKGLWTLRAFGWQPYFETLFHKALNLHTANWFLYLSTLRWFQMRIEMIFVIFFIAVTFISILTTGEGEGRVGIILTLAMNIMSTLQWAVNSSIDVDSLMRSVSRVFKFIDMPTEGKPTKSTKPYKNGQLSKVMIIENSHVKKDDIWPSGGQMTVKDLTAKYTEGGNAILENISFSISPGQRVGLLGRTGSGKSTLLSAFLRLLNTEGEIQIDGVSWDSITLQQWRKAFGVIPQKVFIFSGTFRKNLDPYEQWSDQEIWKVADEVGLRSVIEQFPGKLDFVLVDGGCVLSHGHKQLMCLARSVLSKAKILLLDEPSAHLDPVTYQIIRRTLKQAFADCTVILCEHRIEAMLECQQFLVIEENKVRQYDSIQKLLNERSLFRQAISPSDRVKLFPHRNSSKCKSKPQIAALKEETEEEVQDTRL

[12] = tested on: Cystic fibrosis transmembrane conductance regulator (Homo sapiens), P13569 [F508del/R1070W]; experiment: Corrector activity at CFTR F508del/R1070W mutant (unknown origin) transfected in HEK293 cells assessed as increase in […] at 10 nM incubated for 24 hrs by Western blot analysis
[13] = tested on: Cystic fibrosis transmembrane conductance regulator (Homo sapiens), P13569 [R170G]; experiment: Corrector activity at CFTR R170G mutant (unknown origin) transfected in HEK293 cells assessed as increase in protein maturation at 10 nM incubated for 24 hrs by Western blot analysis
[14] = tested on: Cystic fibrosis transmembrane conductance regulator (Homo sapiens), P13569 [R170G]; experiment: Corrector activity at CFTR R170G mutant (unknown origin) transfected in HEK293 cells assessed as increase in […] at 10 nM incubated for 24 hrs by Western blot analysis
[15] = tested on: Cystic fibrosis transmembrane conductance regulator (Homo sapiens), P13569 [F508del/N71I]; experiment: Corrector activity at CFTR F508del/N71I mutant (unknown origin) transfected in HEK293 cells assessed as increase in protein maturation at 10 nM incubated for 24 hrs by Western blot analysis
[16] = tested on: Cystic fibrosis transmembrane conductance regulator (Homo sapiens), P13569 [F508del/F81A]; experiment: Corrector activity at CFTR F508del/F81A mutant (unknown origin) transfected in HEK293 cells assessed as increase in protein maturation at 10 nM incubated for 24 hrs by Western blot analysis
[17] = tested on: Cystic fibrosis transmembrane conductance regulator (Homo sapiens), P13569 [F508del/W361A]; experiment: Corrector activity at CFTR F508del/W361A mutant (unknown origin) transfected in HEK293 cells assessed as increase in protein maturation at 10 nM incubated for 24 hrs by Western blot analysis
HEK293 = experiment: Corrector activity at CFTR F508del/A198Y mutant (unknown origin) transfected in HEK293 cells assessed as increase in protein maturation at 10 nM incubated for 24 hrs by Western blot analysis; details: Homo sapiens
[18] = tested on: Cystic fibrosis transmembrane conductance regulator (Homo sapiens), P13569 [F508del/R74A]; experiment: Corrector activity at CFTR F508del/R74A mutant (unknown origin) transfected in HEK293 cells assessed as increase in protein maturation at 10 nM incubated for 24 hrs by Western blot analysis
[19] = tested on: Cystic fibrosis transmembrane conductance regulator (Homo sapiens), P13569 [F508del/S364F]; experiment: Corrector activity at CFTR F508del/S364F mutant (unknown origin) transfected in HEK293 cells assessed as increase in protein maturation at 10 nM incubated for 24 hrs by Western blot analysis
[20] = tested on: Cystic fibrosis transmembrane conductance regulator (Homo sapiens), P13569 [F508del/K68I]; experiment: Corrector activity at CFTR F508del/K68I mutant (unknown origin) transfected in HEK293 cells assessed as increase in protein maturation at 10 nM incubated for 24 hrs by Western blot analysis
[21] = target: Cystic fibrosis transmembrane conductance regulator (Homo sapiens) (UniProt P13569); experiment: Corrector activity at wild-type CFTR (unknown origin) expressed in human CFBE41o- cells assessed as restoration of CFTR level at 2.5 uM with UV light irradiation followed by CuAAC implementation by pull down assay
[22] = tested on: Cystic fibrosis transmembrane conductance regulator (Homo sapiens), P13569 [F508del/R1070W]; experiment: Corrector activity at CFTR F508del/R1070W mutant (unknown origin) transfected in HEK293 cells assessed as increase in protein maturation at 3 uM incubated for 24 hrs by Western blot analysis
[23] = tested on: Cystic fibrosis transmembrane conductance regulator (Homo sapiens), P13569 [F508del/R1070W]; experiment: Corrector activity at CFTR F508del/R1070W mutant (unknown origin) transfected in HEK293 cells assessed as increase in […] at 3 uM incubated for 24 hrs by Western blot analysis
[24] = tested on: Cystic fibrosis transmembrane conductance regulator (Homo sapiens), P13569 [F508del]; experiment: Corrector activity at CFTR F508del mutant (unknown origin) expressed in human CFBE41o- cells co-expressing HS-YFP assessed as maximum restoration of channel function incubated for 24 hrs by florescence based analysis (reference value: 3.0)
[25] = target: Cystic fibrosis transmembrane conductance regulator (Homo sapiens) (UniProt P13569); experiment: Corrector activity at wild-type CFTR (unknown origin) expressed in human CFBE41o- cells assessed as restoration of CFTR level at 1 uM preincubated with ARN23765 followed by compound addition measured after 2 hrs by pull down assay
[26] = tested on: Cystic fibrosis transmembrane conductance regulator (Homo sapiens), P13569 [F508del]; experiment: Corrector activity at CFTR F508del mutant (unknown origin) expressed in human CFBE41o- cells assessed as restoration of CFTR level at 1 uM preincubated with ARN23765 followed by compound addition measured after 2 hrs by pull down assay
[27] = target: Cystic fibrosis transmembrane conductance regulator (Homo sapiens) (UniProt P13569); experiment: Corrector activity at CFTR in human CFBE41o- cells harboring CFTR-/- assessed as restoration of CFTR level at 1 uM preincubated with ARN23765 followed by compound addition measured after 2 hrs by pull down assay
[28] = tested on: Cystic fibrosis transmembrane conductance regulator (Homo sapiens), P13569 [F508del]; experiment: Corrector activity at mature CFTR F508del mutant (unknown origin) expressed in human CFBE41o- cells assessed as restoration of CFTR level at 27 degreeC at 1 uM preincubated with ARN23765 followed by compound addition measured after 2 hrs by pull down assay
[29] = tested on: Cystic fibrosis transmembrane conductance regulator (Homo sapiens), P13569 [F508del]; experiment: Corrector activity at immature CFTR F508del mutant (unknown origin) expressed in human CFBE41o- cells assessed as restoration of CFTR level at 27 degreeC at 1 uM preincubated with ARN23765 followed by compound addition measured after 2 hrs by pull down assay

Compound: CC(C)(CO)c1cc2cc(NC(=O)C3(c4ccc5c(c4)OC(F)(F)O5)CC3)c(F)cc2n1C[C@@H](O)CO
Activity [22]: Active
Activity [23]: Active

Compound: C[C@H]1NC(=O)N[C@H]1CCCCCC(=O)NCCOCCOCCOCCn1cc(CCC2(CCNC(=O)c3ccc(O[C@H]4CCCc5c(C(F)(F)F)nn(-c6cccc(C(=O)N(C)c7ccc8c(c7)OC(F)(F)O8)c6)c54)cc3)N=N2)nn1
Activity [24]: 2.8
Activity [25]: inactive
Activity [26]: inactive
Activity [27]: inactive
Activity [28]: Active
Activity [29]: Active

Compound: C[C@H]1NC(=O)N[C@H]1CCCCCC(=O)NCCOCCOCCOCCn1cc(-c2ccc(O[C@H]3CCCc4c(C(F)(F)F)nn(-c5cccc(C(=O)N(C)c6ccc(C7(C(F)(F)F)N=N7)cc6)c5)c43)cc2)nn1
Activity [25]: inactive
Activity [26]: inactive
Activity [27]: inactive
Activity [28]: Active
Activity [29]: Active

Second part, led by results:

Activity [1]: inactive
Activity [2]: inactive
Activity [3]: inactive
Activity [4]: Active
Activity [5]: Active
Activity [6]: Active
Activity [7]: Active
Activity [8]: inactive
Activity [9]: Active
Activity [10]: inactive
Activity [11]: Active
Activity [12]: Active
Activity [13]: Active
Activity [14]: Active
Activity [15]: Active
Activity [20]: Active
Compound: CN(C(=O)c1cccc(-n2nc(C(F)(F)F)c3c2[C@@H](Oc2ccc(C(=O)O)cc2)CCC3)c1)c1ccc2c(c1)OC(F)(F)O2
Activity [16]: Not active; Protein Maturation Markedly Reduced Or Abolished
Activity [17]: Not active; Protein Maturation Markedly Reduced Or Abolished
Activity (HEK293): Not active; Protein Maturation Markedly Reduced Or Abolished
Activity [18]: Not active; Slightly Reduced Protein Maturation
Activity [19]: Not active; Slightly Reduced Protein Maturation

Activity [21]: inactive
Compound: C#Cc1ccc(O[C@H]2CCCc3c(C(F)(F)F)nn(-c4cccc(C(=O)N(C)c5ccc(C6(C(F)(F)F)N=N6)cc5)c4)c32)cc1
